# Reference: patent publication US20110230476A1, “PI3 KINASE INHIBITORS AND USES THEREOF” (AVILA THERAPEUTICS, INC., priority 2009, published 2011)
# Entries after “also recorded” stand apart in the source; their conditions may differ.
# Tests used:
# PI3K = PI3K HCT116 cellular assay (Western blot); assay type: cell-based; conditions: Homo sapiens, HCT-116, HCT116 colon cancer cells, 1 hour incubation, read-out: PI3K Inhibition
# Experimental: PI3K HCT116 Cellular Assay
# Selected compounds were assayed in HCT116 colon cancer cells. […] Cells were then washed with PBS, lysed and the protein lysates were then recovered and analyzed by Western blot.
# HCT116 cells = experiment: HCT-116 cell proliferation assay; assay type: cell-based; conditions: Homo sapiens, 72 hours, Cell Titer Glo
# Experimental: HCT-116 Cell Proliferation Assay
# (§1) For the HCT116 Proliferation Assay, 3000 cells per well were plated in Growth Media (DMEM, 10% FBS, 1% 1-glutamine, 1% penicillin/streptomycin) in 96 well plates. The following day, compounds were added to duplicate wells at concentrations of 10 uM and 3-fold dilutions down to 40 nM. The plates were returned to the incubator for 72 hours and then the assays were developed using Cell Titer Glo (Promega, Madison, Wis.) according to manufacturer's instructions.
# SK-OV-3 cells = experiment: SK-OV-3 cell proliferation assay; assay type: cell-based; conditions: Homo sapiens; SK-OV-3 proliferation, 72 hours, Cell Titer Glo
# Experimental: SK-OV-3 Cell Proliferation Assay
# as §1, with “SK-OV-3 proliferation” for “HCT116 Proliferation”, “5000” for “3000”
# SKOV-3 tumors = experiment: Tumor growth inhibition in vivo; conditions: nude mice, subcutaneous SKOV-3 tumors; GDC-941 orally, II-a-3 I.P., 50-100 mg/Kg/QD, 21 days
# Experimental: Tumor Growth Inhibition In Vivo
# The in vivo experiment was performed at Piedmont Research Center (Research Triangle Park, N.C.). Nude mice were implanted with SKOV-3 tumors subcutaneously. […] Dosing continued for 21 days. Tumor volume was measured twice a week.
# p110alpha = p110alpha (Homo sapiens, UniProt P42336); experiment: In vitro occupancy in SKOV-3 cells with covalent probe; assay type: cell-based; conditions: for target occupancy (competition with the covalent probe): covalent probe XIV-a-3 or XIV-a-4
# Sequence of p110alpha (P42336 whole entry): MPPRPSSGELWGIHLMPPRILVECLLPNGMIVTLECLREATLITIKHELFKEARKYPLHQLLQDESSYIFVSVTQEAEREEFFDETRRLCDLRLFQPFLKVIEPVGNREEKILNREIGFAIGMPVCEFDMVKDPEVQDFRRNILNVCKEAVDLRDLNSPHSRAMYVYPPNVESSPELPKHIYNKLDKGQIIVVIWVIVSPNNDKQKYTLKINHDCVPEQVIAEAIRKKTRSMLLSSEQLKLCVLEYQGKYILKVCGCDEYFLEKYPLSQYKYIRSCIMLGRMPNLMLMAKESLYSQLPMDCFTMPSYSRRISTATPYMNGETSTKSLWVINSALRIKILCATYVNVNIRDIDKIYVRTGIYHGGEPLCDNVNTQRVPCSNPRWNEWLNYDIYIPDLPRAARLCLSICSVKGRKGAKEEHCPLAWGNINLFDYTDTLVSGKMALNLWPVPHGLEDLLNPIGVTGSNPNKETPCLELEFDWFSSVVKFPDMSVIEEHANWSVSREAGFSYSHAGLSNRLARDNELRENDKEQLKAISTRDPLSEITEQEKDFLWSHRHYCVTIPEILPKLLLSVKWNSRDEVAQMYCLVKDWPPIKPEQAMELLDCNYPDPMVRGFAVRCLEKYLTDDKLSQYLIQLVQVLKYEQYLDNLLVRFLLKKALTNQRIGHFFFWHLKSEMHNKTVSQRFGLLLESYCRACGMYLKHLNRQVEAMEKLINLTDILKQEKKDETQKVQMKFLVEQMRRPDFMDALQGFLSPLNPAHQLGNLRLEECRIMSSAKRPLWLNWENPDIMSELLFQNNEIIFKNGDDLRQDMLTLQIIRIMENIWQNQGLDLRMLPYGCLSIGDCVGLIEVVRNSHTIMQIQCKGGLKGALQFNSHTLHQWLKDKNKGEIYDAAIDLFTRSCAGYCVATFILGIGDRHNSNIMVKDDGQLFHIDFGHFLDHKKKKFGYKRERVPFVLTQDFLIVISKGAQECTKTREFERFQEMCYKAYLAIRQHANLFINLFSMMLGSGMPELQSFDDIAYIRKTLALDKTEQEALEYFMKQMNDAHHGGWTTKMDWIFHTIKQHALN
# Experimental: 150 ug of protein sample was added to a 0.2 ml tube and the volume brought up to 100 ul with IP Buffer from the Protein A/G Plate IP Kit (Pierce Biotechnology, Rockford, Ill.). XIV-a-3 was added at a concentration of 1 uM or XIV-a-4 was added at 50 nM and the tube was incubated at room temperature with rocking for 1 hr.
# Protein A/G coated wells from the Protein A/G Plate IP Kit were washed 3× with 200 ul of IP Buffer. […] After incubating at room temperature with shaking for 1 hour, the wells were washed 5× with 200 ul of IP Buffer and the protein samples, preincubated with XIV-a-3, were added to the wells. The wells were incubated overnight at 4° C. with shaking.
# The next morning, the wells were washed 5× with 200 ul of IP Buffer. The last wash was allowed to stand for 5 minutes before removal. The immuoprecipitate was eluted from the plate with 40 ul of Pierce Elution Buffer for 30 seconds, after which time the eluate was moved to a 1.5 ml tube containing 4 ul of Pierce Neutralization Buffer. 15 ul of NuPAGE LDS Sample Buffer and 6 ul of NuPAGE Sample Reducing Agent (Invitrogen, Carlsbad, Calif.) were added to each tube and the samples were incubated at 70° C. for 5 minutes.
# The blot was rinsed once in water, then incubated for 2 minutes in Qentix Solution 1 (Pierce Biotechnology) followed by 5 rinses in water. The blot was then incubated for 10 minutes in Qentix solution 2, rinsed 5 times in water then blocked in Odyssey Blocking Buffer (Li-Cor) for an hour.
# The blot was then incubated overnight at 4° C. with rabbit anti-p110 alpha antibody (Epitomics, Burlingame, Calif.) diluted 1:2500 in PBS/Odyssey Buffer (1:1)+0.1% Tween-20. […]
# The blots were washed 2 times for 5 minutes in PBS+0.2% Tween-20, once in distilled water, then scanned on an Odyssey machine (Li-Cor, Lincoln, Nebr.). Band intensity was determined using the Odyssey software and streptavidin (Tool) signal was normalized to total p110 alpha signal within samples, then expressed as a percentage of the untreated signal.
# PI3 kinase = experiment: Comparison of covalent and non-covalent inhibitors (Tables 18 and 19): prolonged PD, mechanism
# Experimental: “A” designates ≦10 nM; “B” designates 10-100 nM; and “C” designates 100-1000 nM
# PI3Kα (p110α/p85α) = molecular target: T1, PI3Kα (p110α/p85α) (Homo sapiens, UniProt P42336); experiment: HTRF assay, potency against active PI3Kα; assay type: biochemical; conditions: HTRF; [ATP]=50 μM, [di-C8-PIP2]=10 μM; 30 min pre-incubation; read-out: PI3Kα Inhibition
# T1 construct: purchased BPS Bioscience (San Diego, Calif.) or Millipore (Billerica, Mass.)
# T1 sequence (P42336 whole entry): as above
# T1 sequence (P27986 whole entry partner): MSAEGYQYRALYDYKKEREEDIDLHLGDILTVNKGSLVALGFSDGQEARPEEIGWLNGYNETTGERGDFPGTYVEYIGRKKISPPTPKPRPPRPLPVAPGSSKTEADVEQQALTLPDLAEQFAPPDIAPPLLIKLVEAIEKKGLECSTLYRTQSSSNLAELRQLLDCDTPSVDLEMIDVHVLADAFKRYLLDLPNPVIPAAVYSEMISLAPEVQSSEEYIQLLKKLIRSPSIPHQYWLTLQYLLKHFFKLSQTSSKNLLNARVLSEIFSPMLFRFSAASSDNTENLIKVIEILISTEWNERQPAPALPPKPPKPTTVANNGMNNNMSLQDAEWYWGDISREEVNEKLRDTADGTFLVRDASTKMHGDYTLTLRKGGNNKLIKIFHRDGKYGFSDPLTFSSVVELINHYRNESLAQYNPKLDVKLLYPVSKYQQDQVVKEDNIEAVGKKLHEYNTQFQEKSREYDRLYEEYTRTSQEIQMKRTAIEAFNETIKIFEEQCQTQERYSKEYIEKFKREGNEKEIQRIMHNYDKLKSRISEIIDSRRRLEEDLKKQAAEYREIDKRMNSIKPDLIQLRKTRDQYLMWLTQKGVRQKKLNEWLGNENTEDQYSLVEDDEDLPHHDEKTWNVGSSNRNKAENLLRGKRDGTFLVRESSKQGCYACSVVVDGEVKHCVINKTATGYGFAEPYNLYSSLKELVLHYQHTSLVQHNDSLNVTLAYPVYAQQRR
# Outline: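 IC50 came from a variable-slope fit of % inhibition, calculated from the HTRF emission ratio relative to wells with and without enzyme. Reactions with the active enzyme complex ran 30-60 minutes at 25 °C after ATP addition before stop and detection reagents.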
# PI3Kβ (p110β/p85α) = molecular target: T2, PI3Kβ (p110β/p85α) (Homo sapiens, UniProt P42338); experiment: HTRF assay, potency against active PI3Kβ; assay type: biochemical; conditions: [ATP]=50 μM, [di-C8-PIP2]=10 μM, 30 min pre-incubation, read-out: PI3Kβ Inhibition
# T2 construct: purchased BPS Bioscience (San Diego, Calif.) or Millipore (Billerica, Mass.)
# T2 sequence (P42338 whole entry): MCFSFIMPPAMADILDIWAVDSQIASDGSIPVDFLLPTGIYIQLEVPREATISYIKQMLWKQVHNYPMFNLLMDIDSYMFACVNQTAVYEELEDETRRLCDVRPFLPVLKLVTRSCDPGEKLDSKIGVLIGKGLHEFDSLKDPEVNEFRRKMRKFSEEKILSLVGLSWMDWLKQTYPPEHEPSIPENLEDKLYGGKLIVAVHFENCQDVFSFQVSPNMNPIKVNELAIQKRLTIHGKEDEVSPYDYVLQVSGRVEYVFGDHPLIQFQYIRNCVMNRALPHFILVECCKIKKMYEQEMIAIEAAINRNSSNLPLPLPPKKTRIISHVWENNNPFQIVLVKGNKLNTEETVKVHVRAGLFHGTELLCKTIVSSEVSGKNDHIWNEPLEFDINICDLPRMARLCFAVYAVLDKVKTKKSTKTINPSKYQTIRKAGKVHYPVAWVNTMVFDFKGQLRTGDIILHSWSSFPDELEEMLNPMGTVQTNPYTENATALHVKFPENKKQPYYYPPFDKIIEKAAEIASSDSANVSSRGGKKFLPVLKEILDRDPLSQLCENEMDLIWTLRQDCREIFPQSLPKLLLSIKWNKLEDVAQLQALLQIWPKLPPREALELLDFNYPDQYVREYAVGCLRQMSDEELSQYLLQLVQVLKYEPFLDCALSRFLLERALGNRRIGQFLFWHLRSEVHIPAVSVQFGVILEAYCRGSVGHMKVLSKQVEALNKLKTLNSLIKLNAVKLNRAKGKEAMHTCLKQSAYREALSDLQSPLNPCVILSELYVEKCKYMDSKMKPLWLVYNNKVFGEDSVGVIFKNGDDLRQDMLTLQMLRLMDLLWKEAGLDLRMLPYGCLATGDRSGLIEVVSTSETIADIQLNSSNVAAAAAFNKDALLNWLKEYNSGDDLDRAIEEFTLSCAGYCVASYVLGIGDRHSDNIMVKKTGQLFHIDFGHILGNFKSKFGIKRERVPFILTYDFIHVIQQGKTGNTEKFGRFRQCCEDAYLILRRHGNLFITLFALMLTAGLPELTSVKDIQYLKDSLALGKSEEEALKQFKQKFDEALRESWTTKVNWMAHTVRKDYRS
# T2 sequence (P27986 whole entry partner): as the sequence (P27986 whole entry partner) above
# Experimental: Homogeneous Time Resolved Fluorescence (HTRF) Assay Protocol for Potency Assessment Against the Active Forms of PI3Kα, PI3Kβ, and PI3Kγ
# The mechanics of the assay platform are best described by the vendor (Millipore, Billerica, Mass.) on their website at the following URL: www.millipore.com/coa/tech1/74jt4z.
# Briefly, Stop solution (Stop A, #33-007 and Stop B, #33-009; 3:1 ratio) and Detection Mix (from DMC, #33-015 with DMA, #33-011 and DMB, #33-013; 18:1:1 ratio) were prepared as recommended by the manufacturer about 2 hrs prior to use. […] Lipid kinase reactions were started with the addition of 5 μL of ATP solution, mixed for 15 sec on a rotary plate shaker and incubated for 30-60 minutes at 25° C. Next, reactions were stopped with a 5 μL addition of Stop solution immediately followed by a 5 μL volume of Detection Mix. […] At the conclusion of each assay, the HTRF ratio from fluorescence emission values for each well was calculated and % Inhibition determined from averaged controls wells (+/−PI3K enzyme). % Inhibition values for each compound were then plotted against inhibitor concentration to estimate IC50 from log [Inhibitor] vs Response, Variable Slope model in GraphPad Prism from GraphPad Software (San Diego, Calif.).
# Phospho-Akt(Ser473) [1] = experiment: Dose response in SKOV3 cells as determined by in-cell Western; assay type: cell-based
# Outline: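 SKOV3 cells treated with compound for 1 hr, then formaldehyde-fixed, permeabilised and stained overnight for phospho-Akt(Ser473) with anti-tubulin as a reference. Infrared secondary antibodies read at 680 and 800 nm channels by in-cell Western imaging.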
# SKOV3 cells = experiment: GI50 determinations in SKOV3 cells; assay type: cell-based; conditions: Homo sapiens, SK-OV-3
# PI3Kα [2] = molecular target: T3, PI3Kα (Homo sapiens, UniProt P42336); experiment: Mass spectrometry of intact PI3Kα (Millipore, 14-602), 1 hr incubation; assay type: binding; design: purchased Millipore 14-602; conditions: 10× fold excess of compound, MALDI
# T3 sequence (P42336 whole entry): as the sequence (P42336 whole entry) above
# T3 sequence (P27986 whole entry partner): as the sequence (P27986 whole entry partner) above
# Experimental: Mass Spectrometry for PI3K
# Aliquots (5 μl) of the samples were diluted with 15 μl of 0.2% TFA prior to micro C4 ZipTipping directly onto the MALDI target using Sinapinic acid as the desorption matrix (10 mg/ml in 0.1% TFA:Acetonitrile 50:50).
# PI3Kα [3] = molecular target: T3, PI3Kα; experiment: Trypsin digest and MS-MS analysis of compound-treated PI3Kα; assay type: binding; design: purchased Millipore 14-602; conditions: in-gel trypsin digest
# Experimental: (§2) The PI3Kα protein band was then excised and subjected to an in-gel trypsin digest by reducing the protein with DTT, alkylating the thiols with iodoacetamide, and then incubating the protein gel band with trypsin overnight in a 37° C. water bath. The digest was then stopped by addition of trifluoroacetic acid, and peptides were removed from gel band by sonicating with increasing amounts of acetonitrile (0%, 30%, & 60%). Peptides were then purified using C18 ziptips, spotted on the MALDI target plate with α-cyano-4-hydroxycinnamic acid as the desorption matrix (10 mg/ml in 0.1% TFA:Acetonitrile 50:50), and analyzed in reflectron mode.
# as §2, with “trifluoro acetic” for “trifluoroacetic”
# Phospho-Akt(Ser473) [4] = experiment: Dose response in SKOV3 cells as determined by Western blot; assay type: cell-based; conditions: Homo sapiens, SK-OV-3, 1 hr, Phospho-Akt normalized to total Akt, read-out: Immunoblot
# Outline: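 SKOV3 cells in DMEM/10% FBS were treated with compound in 0.1% DMSO for 1 hr, then lysed. 50 ug protein was immunoblotted for Phospho-Akt(Ser473) and total Akt with fluorescent read-out. Phospho-Akt was normalized to total Akt and expressed as percent of untreated signal.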
# PI3Kγ (p120γ) = molecular target: T4, PI3Kγ (p120γ) (Homo sapiens, UniProt P48736); experiment: HTRF assay, potency against active PI3Kγ; assay type: biochemical; conditions: [ATP]=50 μM, [di-C8-PIP2]=10 μM, 30 min pre-incubation, read-out: PI3Kγ Inhibition
# T4 construct: purchased BPS Bioscience (San Diego, Calif.) or Millipore (Billerica, Mass.)
# T4 sequence (P48736 whole entry): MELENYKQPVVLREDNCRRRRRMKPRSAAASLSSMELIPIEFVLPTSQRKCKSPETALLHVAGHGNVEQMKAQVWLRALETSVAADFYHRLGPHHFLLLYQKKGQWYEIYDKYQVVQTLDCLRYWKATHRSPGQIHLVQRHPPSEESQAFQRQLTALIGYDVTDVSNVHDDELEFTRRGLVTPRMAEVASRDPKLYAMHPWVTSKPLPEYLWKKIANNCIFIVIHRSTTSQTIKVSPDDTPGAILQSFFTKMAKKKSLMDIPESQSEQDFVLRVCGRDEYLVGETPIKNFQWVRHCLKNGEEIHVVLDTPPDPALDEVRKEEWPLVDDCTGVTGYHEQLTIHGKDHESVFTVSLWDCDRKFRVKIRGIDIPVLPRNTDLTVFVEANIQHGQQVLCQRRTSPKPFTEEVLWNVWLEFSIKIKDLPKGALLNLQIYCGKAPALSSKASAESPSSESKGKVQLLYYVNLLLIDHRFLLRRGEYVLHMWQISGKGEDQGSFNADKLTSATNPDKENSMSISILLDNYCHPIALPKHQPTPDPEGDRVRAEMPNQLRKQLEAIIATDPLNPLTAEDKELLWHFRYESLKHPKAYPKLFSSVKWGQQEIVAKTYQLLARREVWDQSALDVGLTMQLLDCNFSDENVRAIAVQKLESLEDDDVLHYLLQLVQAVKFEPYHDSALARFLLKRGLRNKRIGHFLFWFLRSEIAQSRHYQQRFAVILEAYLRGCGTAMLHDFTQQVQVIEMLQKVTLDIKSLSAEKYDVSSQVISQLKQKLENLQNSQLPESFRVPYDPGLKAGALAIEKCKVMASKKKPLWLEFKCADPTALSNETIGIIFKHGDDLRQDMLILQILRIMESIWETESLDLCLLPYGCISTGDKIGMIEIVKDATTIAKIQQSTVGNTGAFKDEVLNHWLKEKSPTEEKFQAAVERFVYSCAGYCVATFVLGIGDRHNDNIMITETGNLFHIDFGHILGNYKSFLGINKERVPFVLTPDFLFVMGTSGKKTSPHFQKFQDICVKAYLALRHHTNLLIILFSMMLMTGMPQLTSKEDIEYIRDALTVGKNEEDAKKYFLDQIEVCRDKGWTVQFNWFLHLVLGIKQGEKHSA
# Outline: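 End-point competition HTRF: enzyme (p110β/p85α 0.75 nM; p120γ 2-2.5 nM) with 10 μM di-C8-PIP2 pre-incubated 30 min at 25° C with compound, then 50 μM ATP added for 30-60 min at 25° C. Stopped, detected after 1 and 18 h; IC50 from variable-slope fit.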
# [5] = Homo sapiens, SK-OV-3, SKOV3 cells, 1 hr, read-out: pAKT Inhibition in cell Western
# [6] = SKOV3 cells, 96 hours, Cell Titer Glo
# [7] = Homo sapiens, SK-OV-3, Table 18, assay not given, classes agree with Table 23, read-out: EC50 pAkt^Ser473
compound,measurement,setting,value
"CS(=O)(=O)N1CCN(Cc2cc3nc(-c4cccc5[nH]ncc45)nc(N4CCOCC4)c3s2)CC1 [GDC-941, reference compound]",EC50,PI3K,[…]
same,EC50,HCT116 cells,1000 to 10000 nM
same,EC50,SK-OV-3 cells,1000 to 10000 nM
same,tumor growth,SKOV-3 tumors,Inhibition of tumor growth
same,target occupancy (competition with the covalent probe),p110alpha,does not compete with the covalent probe
same,Prolonged PD,PI3 kinase; Table 19,No
"C=CC(=O)Nc1ccc(C(=O)N2CC=C(c3cc4nc(-c5cccc6[nH]ncc56)nc(N5CCOCC5)c4s3)CC2)cc1 [II-a-144, N-(4-(4-(2-(1H-indazol-4-yl)-4-morpholinothieno[3,2-d]pyrimidin-6-yl)-1,2,3,6-tetrahydropyridine-1-carbonyl)phenyl)acrylamide]",IC50,PI3Kα (p110α/p85α),100 to 1000 nM
same,IC50,PI3Kβ (p110β/p85α),100 to 1000 nM
same,EC50,Phospho-Akt(Ser473) [1]; [5],100 to 1000 nM
same,GI50,SKOV3 cells; [6],100 to 1000 nM
same,covalent modification of PI3Kα,PI3Kα [2],complete modification; also recorded: covalent modification
same,mass shift of PI3Kα,PI3Kα [2],575 Da
same,"mass shift of PI3Kα, per cent in brackets",PI3Kα [2],97%
same,site on PI3Kα that is covalently modified,PI3Kα [3],Cys-862; also recorded: peptide ^853NSHTIMQIQCK^863
"C=CC(=O)Nc1ccc(CCNC(=O)c2cc3nc(-c4cccc5[nH]ncc45)nc(N4CCOCC4)c3s2)cc1 [II-a-148, N-(4-acrylamidophenethyl)-2-(1H-indazol-4-yl)-4-morpholinothieno[3,2-d]pyrimidine-6-carboxamide]",IC50,PI3Kα (p110α/p85α),100 to 1000 nM
same,IC50,PI3Kβ (p110β/p85α),> 1000 nM
same,EC50,Phospho-Akt(Ser473) [4],≤ 10 nM
same,EC50,Phospho-Akt(Ser473) [1]; [5],10 to 100 nM
same,EC50,Phospho-Akt(Ser473) [1]; [7],10 to 100 nM
same,EC50,"Phospho-Akt(Ser473) [1]; Table 19, assay not given, classes agree with Table 23, read-out: EC50 pAkt^Ser473",10 to 100 nM
same,GI50,SKOV3 cells; [6],10 to 100 nM
same,GI50,"SKOV3 cells; Table 19, assay not given, classes agree with Table 26",10 to 100 nM
same,target occupancy (competition with the covalent probe),p110alpha,Dose-dependent target occupancy
same,EC50,"p110alpha; read-out: EC50 for occupying p110alpha, covalent probe XIV-a-3 or XIV-a-4",~40 nM
same,Prolonged PD,PI3 kinase; Table 18,Yes
same,Prolonged PD,PI3 kinase; Table 19,Yes
same,covalent modification of PI3Kα,PI3Kα [2],complete modification; also recorded: covalent modification
same,mass shift of PI3Kα,PI3Kα [2],472 Da
same,"mass shift of PI3Kα, per cent in brackets",PI3Kα [2],85%
"CCC(=O)Nc1ccc(CCNC(=O)c2cc3nc(-c4cccc5[nH]ncc45)nc(N4CCOCC4)c3s2)cc1 [II^R-a-148, 2-(1H-indazol-4-yl)-4-morpholino-N-(4-propionamidophenethyl)thieno[3,2-d]pyrimidine-6-carboxamide]",IC50,PI3Kα (p110α/p85α),100 to 1000 nM
same,IC50,PI3Kγ (p120γ),> 1000 nM
same,IC50,PI3Kβ (p110β/p85α),> 1000 nM
same,EC50,Phospho-Akt(Ser473) [1]; [5],100 to 1000 nM
same,EC50,Phospho-Akt(Ser473) [1]; [7],100 to 1000 nM
same,Prolonged PD,PI3 kinase; Table 18,No
